Assay results: PMC12771125, “Compounds Reducing Human Sperm Motility as Potential Nonhormonal Contraceptives Identified Using a High-Throughput Phenotypic Screening Platform” (ACS Omega, 2025)
In brackets after ≈: the same amount, converted by molar mass. Like-named read-outs stand apart in the source and are kept apart here.

Tests used:
human sperm = assay: Reduction of sperm motility (RSM) high-throughput phenotypic assay; assay type: cell-based; conditions: for EC50: Homo sapiens, reduction of progressive sperm motility relative to control
Procedure: Using our previously established phenotypic human sperm motility screening platform, we screened a large subset (62,621 compounds) of one of our in-house diversity libraries (National Phenotypic Screening Centre (NPSC) Diversity Set) (Figure A,B). Briefly, human sperm are collected, isolated from semen, distributed into 384-well plates with test compounds, time-lapse images of sperm movement are recorded using a high-content imager, and progressive motility parameters are calculated using custom data analysis software. Sperm motility is complicated, and the mechanisms underpinning its regulation are not fully understood. Progressive motility, which is a measurement of the movement of forward progression of sperm, is most closely linked to sperm quality, and the percentage of progressively motile sperm compared to control is therefore the parameter utilized during the work described in this paper. […]
We used an HTS screening platform to assess the motility of live human spermatozoa. The platform and its development are described in detail in Gruber et al. , and summarized below in brief. The platform was used to screen compound libraries specifically focusing on reduction in motility. Interesting compounds were examined in further detail as possible starting points for a medicinal chemistry program. The experimental design is illustrated in Figure .
Donors were local to the Dundee area, over the age of 18, and had no known fertility problems and normal sperm concentration, motility and semen characteristics according to WHO 2021 criteria. Special category personal data for donors, such as ethnic origin, was not recorded in accordance with ethical approval and UK GDPR. Samples were obtained by masturbation, after sexual abstinence of 2–5 days, and delivered to the research laboratory within one h of production. Samples were allowed to liquefy at 37 °C for 15–30 min prior to preparation by discontinuous density gradient centrifugation (DGC). […] A minimum of 3 prepared donor samples were routinely pooled to reduce donor-to-donor variability for primary screening assays. Pooled samples were incubated for 3 h at 37 °C under noncapacitating conditions.
In brief, screening batches of cells were transferred to a robotic platform (HighRes Biosolutions Inc.) and maintained during the screen at 37 °C at 5% CO2. Assay-ready 384-well plates containing compounds were prepared prior to the screen and filled with approximately 10,000 spermatozoa (20 μL) per well using a liquid handling system (MultiDrop Combi; ThermoFisher). These plates were incubated for 10 min prior to imaging. The HTS system utilized a Yokogawa CV7000 Cell Voyager high-throughput microscope to record time-lapse images from 2 positions in each well. An adaptation of a tracking algorithm, Trackpy v0.4.1 was utilized to track individual spermatozoa within each well and obtain kinematic parameters. Within the compound-test plates, DMSO was used as the vehicle control.
All steps were performed as previously described. , In summary, data from every compound well were normalized to those from in-plate DMSO controls (wells containing the same amount of DMSO as compound wells). Two positions were recorded in every well, and the average of those positions was used for calculating % of control (median value/DMSO median) × 100. Each plate contained 16 DMSO control wells. Median curvilinear velocity (VCL) was used as the primary readout for the NPSC Diversity Set screened at 6 μM, and percentage progressive motility (PM) was used for all other libraries screened. Hits from the primary screening were chosen based on the % change compared to the control. In these experiments, an RSM of ≥20% compared to negative controls (DMSO) was chosen as a cutoff for potential progression.
In a screening program of this scale, a significant number of compounds are likely to have a negative effect on sperm motility, but a number will show general toxicity. […]

Aqueous solubility = assay type: physicochemical
HepG2 cells = assay: HepG2 cytotoxicity assay (resazurin, 72 h); assay type: cell-based, human; conditions: Homo sapiens, HepG2, 72 h; read-out: HepG2 pEC50 (converted)
Description: Our overarching aims for investigating our chemical series and deciding which ones had the potential for further progression were to achieve adequate potency in our motility assay, suitable solubility, and minimal cytotoxicity in HepG2 cells. This third point was often the most challenging, as multiple series had cytotoxicity in HepG2 cells. This observation is perhaps not surprising; many potential targets in sperm cells can also be found in somatic cells. Our cytotoxicity assay is run with an incubation time of 72 h, to give time for gross cytotoxic effects to become apparent.
Compound dilution curves were plated directly using a Labcyte Echo 550 acoustic dispenser (125 nL) in 384-well white clear-bottom plates (Greiner). HepG2 cells (ATCCHepG2 HB-8065) were cultured in minimum essential medium (supplemented with glutamax) with 10% FCS and plated (25 μL) using a WellMate dispenser ([…]) and incubated for 72 h. Doxorubicin was used as a positive control drug. Resazurin was then added to each well at a final concentration of 45 μM, and fluorescence was measured using a PHERAstar LS (BMG Labtech) after 4 h of further incubation (excitation of 528 nm and emission of 590 nm). Raw data were normalized to controls and expressed as % growth.
Figure S2: Concentration-response curves from high throughput HepG2 viability assay. Each compound was tested in duplicate and the curves of each replicate are shown. The reported values in the tables are an average of the 2 pEC50 values obtained. […]
determine 0% effect, positive control used to determine 100% effect).
Hit compounds 1a, 6b and 7a were repurchased from commercial suppliers including enamine and […]

[1] = 10 min, 10 min incubation, reported <X (neg. log of top concentration) if largest reduction <70%, read-out: RSM pEC50 10 mins (converted)
[2] = 3 h incubation, reported <X if largest reduction <70%, read-out: RSM pEC50 3 hrs (converted)
[3] = 6 h incubation, reported <X if largest reduction <70%, read-out: RSM pEC50 6 hrs (converted)

| SMILES | EC50 (human sperm; [1]) | EC50 (human sperm; [2]) | EC50 (human sperm; [3]) | solubility (Aqueous solubility) | difference between pEC50 in the sperm motility assay and pEC50 in the HepG2 cytotoxicity assay (human sperm) | EC50 (HepG2 cells) |
| --- | --- | --- | --- | --- | --- | --- |
| Cc1sc(NC(=O)Nc2ccc(F)cc2F)nc1-c1ccccn1 [Compound 3m] | > 31.6 µM | 15.8 µM | 2 µM | 0.38 µM (≈ 0.132 µg/mL) | less than 1 log units | 12.6 µM |
| CC(=O)Nc1nc2c(Cl)c(Cl)ccc2s1 [Compound 4a, N-(4,5-Dichlorobenzo[d]thiazol-2-yl)acetamide] | 12.6 µM | 5.01 µM | 3.98 µM | 200 µM (≈ 52.2 µg/mL) | ~1 log units | 50.1 µM |
| Nc1nc2c(Cl)c(Cl)ccc2s1 [Compound 4b] | > 31.6 µM | > 31.6 µM | > 31.6 µM | 60 µM (≈ 13.1 µg/mL) |  | 50.1 µM |
| CC(C)C(=O)Nc1nc2c(Cl)c(Cl)ccc2s1 [Compound 4c] | 10 µM | 6.31 µM | 5.01 µM | 18 µM (≈ 5.21 µg/mL) |  | 50.1 µM |
| O=C(Nc1nc2c(Cl)c(Cl)ccc2s1)C1CC1 [Compound 4d] | 10 µM | 3.98 µM | 3.98 µM | 12 µM (≈ 3.45 µg/mL) |  | 50.1 µM |
| CC(C)CC(=O)Nc1nc2c(Cl)c(Cl)ccc2s1 [Compound 4e] | > 31.6 µM | 6.31 µM | 6.31 µM | 4.5 µM (≈ 1.36 µg/mL) |  | > 100 µM |
| O=C(Nc1nc2c(Cl)c(Cl)ccc2s1)C1CCCC1 [Compound 4f] | 10 µM | 5.01 µM | 3.98 µM | 4.2 µM (≈ 1.32 µg/mL) |  | 50.1 µM |
| O=C(Nc1nc2c(Cl)c(Cl)ccc2s1)c1ccccc1 [Compound 4g] | 10 µM | 3.98 µM | 3.98 µM | 0.6 µM (≈ 0.194 µg/mL) |  | 100 µM |
| NC(=O)Nc1nc2c(Cl)c(Cl)ccc2s1 [Compound 4h] | > 31.6 µM | > 31.6 µM | > 31.6 µM | 190 µM (≈ 49.8 µg/mL) |  | 63.1 µM |
| O=C(Nc1nc2c(Cl)cccc2s1)C1CC1 [Compound 4i] | > 31.6 µM | > 31.6 µM | > 31.6 µM | 5.1 µM (≈ 1.29 µg/mL) |  | > 100 µM |
| O=C(Nc1nc2cc(Cl)ccc2s1)C1CC1 [Compound 4j] | > 31.6 µM | > 31.6 µM | > 31.6 µM | 3.4 µM (≈ 0.859 µg/mL) |  | > 100 µM |
| O=C(Nc1nc2c(F)c(F)ccc2s1)C1CC1 [Compound 4k] | > 31.6 µM | > 31.6 µM | > 31.6 µM | 8.5 µM (≈ 2.16 µg/mL) |  | > 100 µM |
| O=C(Nc1nc2cc(F)c(F)cc2s1)C1CC1 [Compound 4l] | > 31.6 µM | > 31.6 µM | > 31.6 µM | 4 µM (≈ 1.02 µg/mL) |  | > 100 µM |
| Cc1ccc2sc(NC(=O)C3CC3)nc2c1C [Compound 4m] | > 31.6 µM | > 31.6 µM | > 31.6 µM | 5.5 µM (≈ 1.35 µg/mL) |  | > 100 µM |

Second part, led by results:

| EC50 (human sperm; [1]) | EC50 (human sperm; [2]) | EC50 (human sperm; [3]) | solubility (Aqueous solubility) | SMILES | difference between pEC50 in the sperm motility assay and pEC50 in the HepG2 cytotoxicity assay (human sperm) | EC50 (HepG2 cells) |
| --- | --- | --- | --- | --- | --- | --- |
| > 31.6 µM | > 31.6 µM | > 31.6 µM | 4.9 µM (≈ 1.81 µg/mL) | CCN(CC)C(=O)c1cc(Nc2ccnc3cc(Cl)ccc23)ccc1O [Compound 5d] |  | > 100 µM |
| > 31.6 µM | > 31.6 µM | 0.316 µM | 3.5 µM (≈ 0.948 µg/mL) | Oc1ccc(Nc2ccnc3cc(Cl)ccc23)cc1 [Compound 5e] |  | 79.4 µM |
| > 31.6 µM | > 31.6 µM | > 31.6 µM | 210 µM (≈ 58.1 µg/mL) | OC1CCC(Nc2ccnc3cc(Cl)ccc23)CC1 (stereo not drawn) [Compound 5f] |  | > 100 µM |
| > 31.6 µM | > 31.6 µM | > 31.6 µM | 4.9 µM (≈ 1.4 µg/mL) | COc1ccc(Nc2ccnc3cc(Cl)ccc23)cc1 [Compound 5g] |  | > 100 µM |
| > 31.6 µM | > 31.6 µM | > 31.6 µM | 220 µM (≈ 59.8 µg/mL) | Oc1ccc(Nc2ccnc3cc(Cl)ccc23)cn1 [Compound 5i] |  | > 100 µM |
| > 31.6 µM | > 31.6 µM | > 31.6 µM | 6.7 µM (≈ 1.82 µg/mL) | Oc1ccc(Nc2ccnc3cc(Cl)ccc23)nc1 [Compound 5j] |  | > 100 µM |
| > 31.6 µM | > 31.6 µM | > 31.6 µM | 11 µM (≈ 3.23 µg/mL) | Clc1ccc2c(Nc3ccc4[nH]ccc4c3)ccnc2c1 [Compound 5k] |  | 12.6 µM |
| > 31.6 µM | > 31.6 µM | 1.58 µM | 1.1 µM (≈ 0.323 µg/mL) | Cc1ccc(Nc2cc(C)nn2-c2nc(C)cc(C)n2)cc1 [Compound 6b, 1-(4,6-Dimethylpyrimidin-2-yl)-3-methyl-N-(p-tolyl)-1H-pyrazol-5-amine] |  | > 100 µM |
| > 31.6 µM | > 31.6 µM | > 31.6 µM | 81 µM (≈ 20.2 µg/mL) | Cc1cc(Nc2ccccc2)n(-c2ccccc2)n1 [Compound 6c] |  | > 100 µM |
